Ends that are not written are not given here.
How the values were obtained:
Assay type in all cases: in vivo
skeletal muscle atrophy [1] = assay: animal models of skeletal muscle atrophy (summary of FIGS. 1-9); details: theophylline administered alone in these atrophy models
Procedure: Theophylline was added to potentiate the duration and magnitude of action of the CRFR agonist therefore resulting in increased efficacy of these compounds. […] Statistical significance of the results was determined using ANCOVA (Douglas C. Montgomery, Design and Analysis of Experiments, John Wiley and Sons, New York (2nd ed. 1984)). Abbreviations used in FIGS. 1-9: g-gram; SEM-standard error of the mean.

skeletal muscle atrophy [2] = assay: Example 13: prophylactic treatment of skeletal muscle atrophy in comatose subject; details: human 60 kg, slow i.v. infusion once each day, 5 ml of 12 mg/ml stock in 500 ml saline
Procedure: A human subject weighing 60 kg is admitted to the hospital in a comatose state. The subject is treated by this method to prevent atrophy of the skeletal muscle of the entire body due to disuse in the comatose state. Specifically, once each day while in the coma, the subject is administered, via slow intravenous infusion, approximately 500 ml of an aqueous solution that is prepared by addition of 5 ml of the following stock solution to 500 ml of sterile saline: […]

[3] = system: denervation-induced atrophy of skeletal muscle; assay: mouse sciatic nerve denervation atrophy model; details: FIG. 5, day nine
Procedure: Legend: A—physiological saline (control); B—sauvagine (0.01 mg/kg)+theophylline; C—sauvagine (0.03 mg/kg)+theophylline; D—sauvagine (0.1 mg/kg)+theophylline; E—sauvagine (1.0 mg/kg)+theophylline; *—p≦0.05 compared to saline. Following denervation of the right sciatic nerve, male mice were injected subcutaneously in the midscapular region twice daily with sauvagine, at the doses indicated above or vehicle control (physiological saline) for nine days. Sauvagine was co-administered with 30 mg/kg theophylline. On day nine, the medial gastrocnemius muscle was removed and weighed to determine the degree of atrophy.
Legend: A—water (control); B—sauvagine (0.1 mg/kg/d); C—sauvagine (0.3 mg/kg/d); D—sauvagine (1.0 mg/kg/d); *—p≦0.05 compared to water. Following denervation of the right sciatic nerve, male mice were dosed with either sauvagine or vehicle control (physiological saline) by continuous infusion using an Alzet osmotic minipump at 5 μl/hr until the end of the experimental period (without additional theophylline). The daily delivered dose of sauvagine is indicated above. Minipump implantation was performed at the time of sciatic nerve denervation. On day nine the tibialis anterior muscle was removed and weighed to determine the degree of atrophy.
Legend: A—water (control); B—sauvagine (1 mg/kg/d); C—urocortin (1.0 mg/kg/d); *—p≦0.05 compared to water. Following denervation of the right sciatic nerve, male mice were dosed with the above indicated agents or vehicle control (physiological saline) by continuous infusion using an Alzet osmotic minipump at 5 μl/hr until the end of the experimental period (without additional theophylline). The daily delivered dose of the agents is indicated above. Minipump implantation was performed at the same time as the sciatic nerve denervation. On day nine the tibialis anterior muscle was removed and weighed to determine the degree of atrophy.
Legend: A-C—wild-type mice; D-F—CRF2R knockout mice. A and D—water (control); B and E—sauvagine (0.3 mg/kg/d); C and F—sauvagine (1.0 mg/kg/d); *—p≦0.05 compared to saline. Following denervation of the right sciatic nerve, female wild-type and CRF2R knockout mice were dosed with sauvagine or vehicle control by continuous infusion using an Alzet osmotic minipump at 5 μl/hr for nine days at the daily delivered dose indicated above. On day nine, the tibialis anterior muscle was removed and weighed to determine the degree of atrophy.
The sciatic nerve denervation atrophy model involves anesthetizing the animal followed by the surgical removal of a short segment of either the right or left sciatic nerve, e.g., in mice the sciatic nerve is isolated approximately at the midpoint along the femur and a 3-5 mm segment is removed. This denervates the lower hind limb musculature resulting in atrophy of these muscles. Typically, innervation to the biceps femoris is left intact to provide satisfactory motion of the knee for virtually normal ambulation. Typically, in untreated animals, muscle mass of the denervated muscles is reduced 30-50% ten days following denervation. Following denervation, test compounds are administered e.g., by injection or by continuous infusion, e.g., via implantation of an osmotic minipump (e.g., Alzet, Palo Alto, Calif.), to determine their effect on denervation induced skeletal muscle atrophy. At various times following denervation, the animals are euthanized and lower leg muscles are dissected rapidly from both the denervated and nondenervated legs, the muscles, cleaned of tendons and connective tissue, are weighed. The extent of atrophy in the affected muscles is analyzed, for example, by measuring muscle mass, muscle cross-sectional area, myofiber cross-sectional area or contractile protein content.

[4] = system: disuse-induced atrophy of skeletal muscle; assay: mouse leg casting disuse atrophy model; details: male mice, 0.3 mg/kg s.c. twice daily + theophylline 30 mg/kg i.p., ten days
Procedure: (§1) Legend: A—physiological saline (control); B—theophylline; C—sauvagine (0.03 mg/kg)+theophylline; D—sauvagine (0.1 mg/kg)+theophylline; E—sauvagine (0.3 mg/kg)+theophylline; *—p≦0.05 compared to saline. Following casting of the right hind leg, male mice were injected subcutaneously in the midscapular region twice daily, with sauvagine or vehicle control (physiological saline) for ten days at the daily delivered dose indicated. Sauvagine was co-administered with twice daily intra-peritoneal dosing of the phosphodiesterase inhibitor theophylline (30 mg/kg). On day ten, the medial gastrocnemius and tibialis anterior muscles were removed and weighed to determine the degree of atrophy.
as §1, with “B—urocortin” for “B—theophylline; C—sauvagine (0.03 mg/kg)+theophylline; D—sauvagine (0.1 mg/kg)+theophylline; E—sauvagine”, “urocortin” for “sauvagine”, “days. Urocortin was administered” for “days”, “doses indicated in the description of FIGS. 6A and 6B. Urocortin” for “daily delivered dose indicated. Sauvagine”
Legend: A—non casted muscle control; B—casted muscle, saline control; C—casted muscle, sauvagine (0.3 mg/kg)+theophylline (30 mg/kg); *—p≦0.05 compared to saline. Following casting of the right hind leg, male mice were injected subcutaneously in the midscapular region twice daily, with either sauvagine or vehicle control (physiological saline) for ten days at the doses indicated above. Sauvagine was co-administered 30 mg/kg theophylline. On day ten, the EDL and soleus muscles were removed and absolute force and mass measurements taken to determine the degree of atrophy.
The leg casting disuse atrophy model involves casting one hind leg of an animal from the knee down through the foot. Typically, muscle mass is reduced 20-40% after ten days of casting. Following casting, test compounds are administered by injection or by continuous infusion via implantation of an osmotic minipump (e.g., Alzet, Palo Alto, Calif.) to determine their effect on leg casting induced skeletal muscle atrophy. At various times following leg casting, the extent of atrophy in the affected muscles is analyzed as described above for the denervation model.
The extensor digitorum longus (EDL) and soleus muscles are removed, tendon-to-tendon from the casted mouse leg. A silk suture is tied to each tendon of the isolated muscles and the muscles are placed into a plexiglass chamber filled with Ringer solution (137 mM sodium chloride, 24 mM sodium bicarbonate, 11 mM glucose, 5 mM potassium chloride, 1 mM magnesium sulfate, 1 mM sodium phosphate, 0.025 mM tubocurarine, all at pH 7.4 and oxygenated with 95% oxygen/5% carbon dioxide) constantly bubbled with 95% oxygen/5% carbon dioxide maintained at 25° C. Muscles are aligned horizontally between a servomotor lever arm (Model 305B-LR Cambridge Technology Inc., Watertown Mass., USA) and the stainless steel hook of a force transducer (Model BG-50; Kulite Semiconductor Products Inc., Leonia, N.J., USA) and field stimulated by pulses transmitted between two platinum electrodes placed longitudinally on either side of the muscle. Square wave pulses (0.2 ms duration) generated by a personal computer with a Labview board (Model PCI-MIO 16E-4), Labview Inc., Austin, Tex., USA) are amplified (Acurus power amplifier model A25, Dobbs Ferry, N.Y., USA) to increase titanic contraction. Stimulation voltage and muscle length (Lo) are adjusted to obtain maximum isometric twitch force. Maximum titanic force production (Po) is determined from the plateau of the frequency-force relationship.

In the case of `Cn1c(=O)c2[nH]cnc2n(C)c1=O` [Theophylline, theophylline], the “effect on skeletal muscle atrophy” value (skeletal muscle atrophy [1]) is reported as “had no effect”.
“Urocortin-II (VILSLDVPIGLLRILLEQARYKAARNQAATNAQILAHV; listed as Mus musculus) [CRF analog]” was tested, and the “skeletal muscle mass and function” value (skeletal muscle atrophy [2]) was “measurable preservation of skeletal muscle mass and function”.
For “urocortin (DNPSLSIDLTFHLLRTLLELARTQSQRERAEQNRIIFDSV; ends and bridges not checked; UniProt P55089 83-122, looked up) [mammalian congener of urotensin, CRFR agonist (Bachem Biosciences, Inc.)]”, the “hypertrophy of the non-denervated leg (tibialis anterior muscle)” value ([3]; 1.0 mg/kg/d by osmotic minipump) was “hypertrophy of the non-denervated leg was observed”, the “denervation-induced atrophy of the tibialis anterior muscle (muscle weight)” value ([3]; male mice, 1 mg/kg/d continuous infusion by osmotic minipump, no theophylline) was “inhibit denervation-induced atrophy” and the “disuse-induced atrophy of the tibialis anterior muscle (muscle weight)” value ([4]; FIG. 6A) was “inhibits disuse-induced atrophy”. For the same compound, the “disuse-induced atrophy of the medial gastrocnemius muscle (muscle weight)” value ([4]; FIG. 6B) was “inhibits disuse-induced atrophy”.

Source: patent publication US7572768B2, “Methods for identifying compounds for regulating muscle mass or function using corticotropin releasing factor receptors” (priority 2001, dated 2009)
